Laboratory results: patent publication US20230141101A1, “PDE4 INHIBITOR COMPOUND AND MEDICAL USE THEREOF” (Suzhou Longbotai Pharmaceuticals Co., Ltd., priority 2020, published 2023)

Legend:
Format in all cases: biochemical
Settings in all cases: 20 nM
PDE4D2 = PDE4D2 (Homo sapiens, UniProt Q08499); assay: PDE4 inhibitory activity assay (FAM-cAMP enzymatic reaction), PDE4D2
Procedure, shortened: (§1)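 Inhibition rates from a fluorescence read gave IC50 values. Each enzyme (PDE4A1A, PDE4B1, PDE4D2) sat with compound for 15 min at room temperature; FAM-cAMP then started a 30 min room-temperature reaction, ended with stop solution and left 60 min more.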

PDE4B1 = molecular target: T1, PDE4B1 (Homo sapiens, UniProt Q07343); assay: PDE4 inhibitory activity assay (FAM-cAMP enzymatic reaction), PDE4B1
T1 construct: purchased BPS 60041
T1 sequence (Q07343 whole entry): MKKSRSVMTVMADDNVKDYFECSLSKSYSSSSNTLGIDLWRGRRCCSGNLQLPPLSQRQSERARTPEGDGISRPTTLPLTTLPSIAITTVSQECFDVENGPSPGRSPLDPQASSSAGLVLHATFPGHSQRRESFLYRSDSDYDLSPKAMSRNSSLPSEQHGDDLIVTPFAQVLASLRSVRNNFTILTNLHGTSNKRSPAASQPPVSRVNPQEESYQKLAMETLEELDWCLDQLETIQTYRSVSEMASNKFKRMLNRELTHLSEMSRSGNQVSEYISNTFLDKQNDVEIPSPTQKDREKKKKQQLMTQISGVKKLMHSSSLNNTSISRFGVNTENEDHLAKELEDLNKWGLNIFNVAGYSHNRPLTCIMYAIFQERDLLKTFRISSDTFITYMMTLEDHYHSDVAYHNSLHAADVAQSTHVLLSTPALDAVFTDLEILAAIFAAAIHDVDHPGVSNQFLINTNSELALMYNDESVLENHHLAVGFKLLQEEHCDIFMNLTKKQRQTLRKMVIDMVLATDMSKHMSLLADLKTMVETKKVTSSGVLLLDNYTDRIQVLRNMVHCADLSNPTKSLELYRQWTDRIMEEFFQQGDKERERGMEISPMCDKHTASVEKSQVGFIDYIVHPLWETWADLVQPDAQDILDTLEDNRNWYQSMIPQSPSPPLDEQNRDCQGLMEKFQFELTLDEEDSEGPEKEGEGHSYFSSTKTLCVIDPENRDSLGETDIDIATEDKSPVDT
Procedure, shortened: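 Each isoform is incubated with test compound for 15 min at room temperature before FAM-cAMP substrate starts a 30-min reaction.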

PDE4A1A = molecular target: T2, PDE4A1A (Homo sapiens, UniProt P27815); assay: PDE4 inhibitory activity assay (FAM-cAMP enzymatic reaction), PDE4A1A
T2 construct: purchased BPS 60040
T2 sequence (P27815 1-647 isoform P27815-4): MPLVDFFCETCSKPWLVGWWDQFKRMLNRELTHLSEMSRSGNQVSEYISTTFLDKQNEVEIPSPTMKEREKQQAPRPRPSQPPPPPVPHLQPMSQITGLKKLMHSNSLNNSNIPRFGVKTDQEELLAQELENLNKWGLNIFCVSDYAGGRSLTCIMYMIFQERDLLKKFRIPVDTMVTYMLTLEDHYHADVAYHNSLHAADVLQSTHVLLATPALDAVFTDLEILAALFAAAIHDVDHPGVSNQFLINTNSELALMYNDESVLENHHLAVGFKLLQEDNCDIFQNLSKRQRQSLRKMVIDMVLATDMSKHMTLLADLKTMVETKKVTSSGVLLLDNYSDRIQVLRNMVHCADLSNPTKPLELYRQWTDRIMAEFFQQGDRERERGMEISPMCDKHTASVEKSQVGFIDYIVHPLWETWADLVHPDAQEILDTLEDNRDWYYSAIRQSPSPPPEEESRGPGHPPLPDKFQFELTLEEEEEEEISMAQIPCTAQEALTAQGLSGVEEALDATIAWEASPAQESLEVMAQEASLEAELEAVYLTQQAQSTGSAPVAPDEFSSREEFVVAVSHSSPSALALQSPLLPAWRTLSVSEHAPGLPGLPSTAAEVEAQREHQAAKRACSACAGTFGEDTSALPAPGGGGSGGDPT
Procedure, shortened: as §1

PDE4D2, sequence (Q08499 303-809): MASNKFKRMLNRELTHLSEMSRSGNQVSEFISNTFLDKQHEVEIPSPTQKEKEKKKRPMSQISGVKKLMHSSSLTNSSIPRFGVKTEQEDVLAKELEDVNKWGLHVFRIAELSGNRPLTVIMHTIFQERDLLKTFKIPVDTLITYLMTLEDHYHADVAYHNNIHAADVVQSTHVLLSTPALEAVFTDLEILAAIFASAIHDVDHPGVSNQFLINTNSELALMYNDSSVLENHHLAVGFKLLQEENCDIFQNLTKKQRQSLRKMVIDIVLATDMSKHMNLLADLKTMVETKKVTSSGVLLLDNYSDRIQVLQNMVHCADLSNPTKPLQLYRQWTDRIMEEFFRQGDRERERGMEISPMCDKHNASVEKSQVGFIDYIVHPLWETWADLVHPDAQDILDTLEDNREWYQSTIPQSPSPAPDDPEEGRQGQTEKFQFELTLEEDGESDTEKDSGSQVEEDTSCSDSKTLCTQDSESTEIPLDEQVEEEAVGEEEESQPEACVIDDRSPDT

Compound	PDE4 D2 inhibitory effect at 20 nM (PDE4D2)	PDE4 B1 inhibitory effect at 20 nM (PDE4B1)	PDE4 A1 inhibitory effect at 20 nM (PDE4A1A)
CCOc1nc([C@@H](CS(C)(=O)=O)n2c(=O)n(C)c3cc(-c4cc(F)ccc4OC)ccc32)ccc1OC [Ex. 187, (S)-5-(5-fluoro-2-methoxyphenyl)-1-(1-(6-ethoxy-5-methoxypyridin-2-yl)-2-(methylsulfonyl)ethyl)-3-methyl-1H-benzo[d]imidazol-2(3H)-one]	+	+	+
CCOc1nc([C@@H](CS(C)(=O)=O)n2c(=O)[nH]c3cc(-c4ccc(F)cc4OC)ccc32)ccc1OC [Ex. 188, (S)-5-(4-fluoro-2-methoxyphenyl)-1-(1-(6-ethoxy-5-methoxypyridin-2-yl)-2-(methylsulfonyl)ethyl)-1H-benzo[d]imidazol-2(3H)-one]	+	+	+
CCOc1nc([C@@H](CS(C)(=O)=O)n2c(=O)n(C)c3cc(-c4ccc(F)cc4OC)ccc32)ccc1OC [Ex. 189, (S)-5-(4-fluoro-2-methoxyphenyl)-1-(1-(6-ethoxy-5-methoxypyridin-2-yl)-2-(methylsulfonyl)ethyl)-3-methyl-1H-benzo[d]imidazol-2(3H)-one]	+	+	+
CCOc1nc([C@@H](CS(C)(=O)=O)n2c(=O)[nH]c3cc(-c4c(F)cccc4OC)ccc32)ccc1OC [Ex. 190, (S)-5-(6-fluoro-2-methoxyphenyl)-1-(1-(6-ethoxy-5-methoxypyridin-2-yl)-2-(methylsulfonyl)ethyl)-1H-benzo[d]imidazol-2(3H)-one]	+	+	+
CCOc1nc([C@@H](CS(C)(=O)=O)n2c(=O)n(C)c3cc(-c4c(F)cccc4OC)ccc32)ccc1OC [Ex. 191, (S)-5-(6-fluoro-2-methoxyphenyl)-1-(1-(6-ethoxy-5-methoxypyridin-2-yl)-2-(methylsulfonyl)ethyl)-3-methyl-1H-benzo[d]imidazol-2(3H)-one]	+	+	+
CCOc1ccccc1-c1ccc2c(c1)[nH]c(=O)n2[C@H](CS(C)(=O)=O)c1ccc(OC)c(OCC)n1 [Ex. 192, (S)-1-(1-(6-ethoxy-5-methoxypyridin-2-yl)-2-(methylsulfonyl)ethyl)-5-(2-ethoxyphenyl)-1H-benzo[d]imidazol-2(3H)-one]	+	+	+
CCOc1ccccc1-c1ccc2c(c1)[nH]c(=O)n2[C@@H](CS(C)(=O)=O)c1ccc(OC)c(OCC)n1 [Ex. 193, (R)-1-(1-(6-ethoxy-5-methoxypyridin-2-yl)-2-(methylsulfonyl)ethyl)-5-(2-ethoxyphenyl)-1H-benzo[d]imidazol-2(3H)-one]	−	−	−
CCOc1nc([C@@H](CS(C)(=O)=O)n2c(=O)[nH]c3cc(-c4ccccn4)ccc32)ccc1OC [Ex. 194, (S)-1-(1-(6-ethoxy-5-methoxypyridin-2-yl)-2-(methylsulfonyl)ethyl)-5-(pyridin-2-yl)-1H-benzo[d]imidazol-2(3H)-one]	+	+	+
CCOc1nc([C@H](CS(C)(=O)=O)n2c(=O)[nH]c3cc(-c4ccccn4)ccc32)ccc1OC [Ex. 195, (R)-1-(1-(6-ethoxy-5-methoxypyridin-2-yl)-2-(methylsulfonyl)ethyl)-5-(pyridin-2-yl)-1H-benzo[d]imidazol-2(3H)-one]	−	−	−
CCOc1nc([C@@H](CS(C)(=O)=O)n2c(=O)n(C)c3cc(-c4ccccn4)ccc32)ccc1OC [Ex. 196, (S)-1-(1-(6-ethoxy-5-methoxypyridin-2-yl)-2-(methylsulfonyl)ethyl)-3-methyl-5-(pyridin-2-yl)-1H-benzo[d]imidazol-2(3H)-one]	+	+	+
CCOc1nc([C@@H](CS(C)(=O)=O)n2c(=O)n(CC)c3cc(-c4ccccn4)ccc32)ccc1OC [Ex. 197, (S)-1-(1-(6-ethoxy-5-methoxypyridin-2-yl)-2-(methylsulfonyl)ethyl)-3-ethyl-5-(pyridin-2-yl)-1H-benzo[d]imidazol-2(3H)-one]	+	+	+
CCOc1nc([C@@H](CS(C)(=O)=O)n2c(=O)n(CCOC)c3cc(-c4ccccn4)ccc32)ccc1OC [Ex. 198, (S)-1-(1-(6-ethoxy-5-methoxypyridin-2-yl)-2-(methylsulfonyl)ethyl)-3-(2-methoxyethyl)-5-(pyridin-2-yl)-1H-benzo[d]imidazol-2(3H)-one]	+	+	+
CCOc1nc([C@@H](CS(C)(=O)=O)n2c(=O)[nH]c3c(-c4ccccc4OC)cccc32)ccc1OC [Ex. 203, (S)-1-(1-(6-ethoxy-5-methoxypyridin-2-yl)-2-(methylsulfonyl)ethyl)-4-(2-methoxyphenyl)-1H-benzo[d]imidazol-2(3H)-one]	+	+	+
CCOc1nc([C@@H](CS(C)(=O)=O)n2c(=O)[nH]c3c(-c4ccccc4C)cccc32)ccc1OC [Ex. 204, (S)-1-(1-(6-ethoxy-5-methoxypyridin-2-yl)-2-(methylsulfonyl)ethyl)-4-(o-methylphenyl)-1H-benzo[d]imidazol-2(3H)-one]	+	+	+
CCOc1nc([C@@H](CS(C)(=O)=O)n2c(=O)[nH]c3c(-c4ccccc4F)cccc32)ccc1OC [Ex. 205, (S)-1-(1-(6-ethoxy-5-methoxypyridin-2-yl)-2-(methylsulfonyl)ethyl)-4-(2-fluorophenyl)-1H-benzo[d]imidazol-2(3H)-one]	+	+	+
CCOc1nc([C@@H](CS(C)(=O)=O)n2c(=O)[nH]c3c(-c4ccccc4)cccc32)ccc1OC [Ex. 206, (S)-1-(1-(6-ethoxy-5-methoxypyridin-2-yl)-2-(methylsulfonyl)ethyl)-4-phenyl-1H-benzo[d]imidazol-2(3H)-one]	+	+	+
CCOc1nc([C@@H](CS(C)(=O)=O)n2c(=O)[nH]c3c(Cc4ccccc4F)cccc32)ccc1OC [Ex. 207, (S)-1-(1-(6-ethoxy-5-methoxypyridin-2-yl)-2-(methylsulfonyl)ethyl)-4-(2-fluorobenzyl)-1H-benzo[d]imidazol-2(3H)-one]	+	+	+
CCOc1nc([C@@H](CS(C)(=O)=O)n2c(=O)n(C3CC3)c3cc(-c4ccccc4F)ccc32)ccc1OC [Ex. 208, (S)-3-cyclopropyl-1-(1-(6-ethoxy-5-methoxypyridin-2-yl)-2-(methylsulfonyl)ethyl)-5-(2-fluorophenyl)-1H-benzo[d]imidazol-2(3H)-one]	+	+	+
CCOc1nc([C@@H](CS(C)(=O)=O)n2c(=O)n(C3CC3)c3cc(C)ccc32)ccc1OC [Ex. 209, (S)-3-cyclopropyl-1-(1-(6-ethoxy-5-methoxypyridin-2-yl)-2-(methylsulfonyl)ethyl)-5-methyl-1H-benzo[d]imidazol-2(3H)-one]	+	+	+
CCOc1nc([C@@H](CS(C)(=O)=O)n2c(=O)n(CCS(C)(=O)=O)c3cc(Br)ccc32)ccc1OC [Ex. 210, (S)-5-bromo-1-(1-(6-ethoxy-5-methoxypyridin-2-yl)-2-(methylsulfonyl)ethyl)-3-(2-(methylsulfonyl)ethyl)-1H-benzo[d]imidazol-2(3H)-one]	−	−	−
CCOc1nc([C@@H](CS(C)(=O)=O)n2c(=O)n(C3CC3)c3cc(C(F)(F)F)ccc32)ccc1OC [Ex. 211, (S)-3-cyclopropyl-1-(1-(6-ethoxy-5-methoxypyridin-2-yl)-2-(methylsulfonyl)ethyl)-5-(trifluoromethyl)-1H-benzo[d]imidazol-2(3H)-one]	+	+	+
